Holding throughout (format): cell-based
One test deals with Ngn3/GFP mouse ES cells. The test is described as follows: Ngn3 positive cell inducing rate. Particulars: TBZ 2.5 μM or dBu-cAMP 0.6 μM; addition days 9-11, 11-13 or 9-13; day 13 (FIG. 16C). How it is done: The influence exerted on the Ngn3 positive cell inducing rate by addition of TBZ (2.5 μM) or dBu-cAMP (0.6 μM) was confirmed. FIG. 16A is a view schematically showing the addition periods of TBZ or dBu-cAMP, and the addition periods are a) on days 9 to 11 of culture, b) on days 11 to 13 of culture, and c) on days 9 to 13 of culture.
First, the compound was not added or TBZ was added on days 9 to 13 of culture (period c), and visible light photographs and fluorescence of Ngn3/GFP mouse ES cells were observed on day 13 of culture. The left one is a visible light photograph and the right one is fluorescence.
Next, the compound was not added, or TBZ or dBu-cAMP was added under the above-described conditions a), b) and c), and the proportion of GFP positive cells on day 13 of culture was checked. The ratios of the proportions of GFP positive cells and Ngn3 positive cells when the ratio in the case of no addition is 1 are shown in FIG. 16C. […] The order of intensity of the effect was a), c), b) in descending order.

A further test relates to differentiated ES cells. The test is described as follows: Secreted insulin and cellular insulin content by mouse c-peptide ELISA.
Test [1] relates to mouse ES cells (Pdx1/GFP). The test is described as follows: Differentiation of mouse ES cells into insulin positive cells on nano fiber plate, immunostaining and quantitative image analysis. An excerpt: Two ES cell lines, one expressing green fluorescent protein (GFP) under the control of insulin 1 promoter, designed ING (Higuchi Y., Shiraki N., Yamane K, Qin Z., Mochitate K., Araki K., Senokuchi K., Yamagata K., Hara M., Kume K., and Kume S., Synthesized basement membranes direct the differentiation of mouse embryonic stem cells into pancreatic lineages. J. Cell Science, 123, 2733-2742, 2010), and the other one expressing GFP under the control of Pdx1 promoter, designated SK7 (Shiraki N, Yoshida T, Araki K, et al. Guided differentiation of embryonic stem cells into Pdx1-expressing regional-specific definitive endoderm. Stem Cells. 2008; 26:874-885), were used. Both cell lines were maintained on mouse embryonic fibroblast (MEF) feeders in Glasgow minimum essential medium (Invitrogen) containing 1000 units/ml leukemia inhibitory factor (LIF; Chemicon), 15% Knocked-out Serum Replacement (KSR; Gibco), 1% fetal bovine serum (FBS; Hyclone), 100 μM nonessential amino acids (NEAA; Invitrogen), 2 mM L-glutamine (L-Gln; Invitrogen), 1 mM sodium pyruvate (Invitrogen), 50 units/ml penicillin and 50 μg/ml streptomycin (PS; Invitrogen) and 100 μM β-mercaptoethanol (β-ME; Sigma), as ES maintenance medium.
For the differentiation studies, ES cells were plated at 5,000 cells per well in Corning 96 well plate with Ultra-Web Synthetic Polyamine Surface (#3873XX1, Corning Coster, Cambridge, Miss.), and cultured. The cells were cultured in Dulbecco's Modified Eagle Medium (DMEM: Invitrogen, Glasgow, UK) containing 4500 mg/L glucose, supplemented with NEAA, L-Gln, PS, β-ME, 10 μg/ml insulin (Sigma-Aldrich), 5.5 μg/ml transferrin (Sigma-Aldrich), 6.7 pg/ml selenium (Sigma-Aldrich), and 0.25% Albmax (Invitrogen), 10 ng/mL recombinant human activin-A (R&D Systems, Minneapolis, Minn.), 5 ng/mL; recombinant human bFGF for 7 days (d1-d7) (I of FIG. 1). And then, the medium was changed to RPMI 1640 medium (Invitrogen) containing 2000 mg/L glucose (Sigma, St Louis, Mo.), 1 μM Retinoic acid (Sigma-Aldrich), 50 ng/ml Human Recombinant Fibroblast Growth Factor-10 (Peprotech, Rocky Hill, N.J.), B27 SUPPLEMENT (Invitrogen) and 0.25 μM 3-Keto-N-(aminoethyl-aminocaproyl-dihydrocinnamoyl) cyclopamine Shh Signaling Antagonist II (Calbiochem, San Diego, Calif.) on d7 to d11 (II of FIG. 1). Finally, the medium was switched to DMEM containing 1000 mg/L glucose supplemented with NEAA, L-Gln, PS, β-ME, 10 μg/ml insulin (Sigma-Aldrich), 5.5 μg/ml transferrin (Sigma-Aldrich), 6.7 pg/ml selenium (Sigma-Aldrich), 0.25% Albmax (Invitrogen) and 10 mM nicotinamide (Sigma-Aldrich) on d11 to d17 (III of FIG. 1). Media were replaced every 2 days with fresh medium and growth factors until d17.
All tested small chemical compounds were solved in dimethyl sulfoxide (DMSO) at given concentration. Compounds were added on d11, d13 and d15 in a medium. Final concentration of DMSO was adjusted at 1.0% in all experiments for compounds.
After 17 days cell culture, cultured ES cells were fixed in 4% paraformaldehyde in PBS for 30 min at room temperature, and rinsed several times with PBS. Then, cells were incubated in the added diluted primary antibody in 20% Blocking One (Nacalai tesque, Tokyo, Japan) in PEST (0.1% Tween-20 in PBS) in a humidified chamber for overnight at 4° C. After washing the cells in PBST, cells were incubated with the secondary antibody in 20% Blocking One for 2 hr at room temperature in dark. After washing off the secondary antibody in PBST, cells were counterstained with […] (DAPI) (Roche Diagnostics). The following antibodies were used as First antibodies: Rabbit anti-GFP (MBL International Corp., Woburn, Mass.), Mouse anti-Insulin (Sigma). The following antibodies were used as Secondary antibodies: Alexa 568-conjugated, Alexa 488-conjugated antibodies (Invitrogen) Cells were counterstained with DAPI (Roche Diagnotics, Basel, Switzerland).

The values below come from patent publication US9617517B2, “Small chemical compound which promotes induction of differentiation of stem cells into insulin-producing cells and method for inducing differentiation of stem cells into insulin-producing cells using said small chemical compound” (NATIONAL UNIVERSITY CORPORATION KUMAMOTO UNIVERSITY, priority 2011, dated 2017).

Consider `CCCC(=O)Nc1ncnc2c1ncn2[C@@H]1O[C@@H]2COP(=O)(O)O[C@H]2[C@H]1OC(=O)CCC` [Dibutyryl- cAMP, dibutyrate-cAMP], for which, in the test on Ngn3/GFP mouse ES cells, the “number of GFP positive cells” value is recorded as “increased in all conditions”. Further, the “sugar-responsive C-peptide secretion” value in the test on differentiated ES cells (dBu-cAMP 0.6 μM, no TBZ, addition days 11-17, 11-15 or 13-17, day 17 (FIG. 17)) is on record as “increased in all conditions”. For the same compound, the C-peptide secretion result with differentiated ES cells (glucose concentration 27.5 mM, dBu-cAMP 0.6 μM day 11 to 17 (FIG. 18E)) was “C-peptide secretion was observed”. In addition, the “increase of number of insulin positive cells” value in test [1] (0.6 μM dBu-cAMP (FIG. 11B)) was “about 7 fold”. The “increase of number of insulin-expressing cells” value in test [1] (NS cells, 0.63 μM dBu-cAMP d11-d17 (FIG. 11A)) stood at 2.9 fold. In addition, the “effect on differentiation into insulin-expressing cells” value in test [1] (compound added d11-d17, insulin staining d17 (FIG. 4, 5, 7, 8, 10)) is reported as “enhanced the differentiation into insulin-expressing cells”. For the same compound, in test [1] (number of cells with no compound = 1, concentration of each compound (μM), added d11, d13, d15, analysed d17), the “Relative value of Ins positive cells” value is listed as 4.9.
